According to US20150322112A1, “SEMA5B PEPTIDES AND VACCINES CONTAINING THE SAME” (ONCOTHERAPY SCIENCE, INC., priority 2012, published 2015):
Entries after “also recorded” stand apart in the source; their conditions may differ. No end group written: not given here.

What was measured:
[1] = test system: peptide-pulsed TISI cells; assay: In vitro CTL induction with peptide-pulsed DCs, IFN-gamma ELISPOT assay; assay type: cell-based, human; conditions: for Peptide specific CTL activity (IFN-gamma production), IFN-gamma ELISPOT: CTLs induced with the peptide, target cells pulsed with peptide vs not pulsed (control); for CTL inducibility: summary statement in the description
Text: Monocyte-derived dendritic cells (DCs) were used as antigen-presenting cells to induce cytotoxic T lymphocyte (CTL) responses against peptides presented on human leukocyte antigen (HLA). DCs were generated in vitro as described elsewhere (Nakahara S et al., Cancer Res 2003 Jul. 15, 63(14): 4112-8). Specifically, peripheral blood mononuclear cells isolated from a normal volunteer (HLA-A*2402 positive) by Ficoll-Paque plus (Pharmacia) solution were separated by adherence to a plastic tissue culture dish (Becton Dickinson) so as to enrich them as the monocyte fraction. The monocyte-enriched population was cultured in the presence of 1000 IU/ml of granulocyte-macrophage colony-stimulating factor (R&D System) and 1000 IU/ml of interleukin (IL)-4 (R&D System) in AIM-V Medium (Invitrogen) containing 2% heatinactivated autologous serum (AS). After 7 days of culture, the cytokine-induced DCs were pulsed with 20 micro g/ml of each of the synthesized peptides in the presence of 3 micro g/ml of beta 2-microglobulin for 3 hr at 37 degrees C. in AIM-V Medium. The generated cells appeared to express DC-associated molecules, such as CD80, CD83, CD86 and HLA class II, on their cell surfaces (data not shown). These peptide-pulsed DCs were then inactivated by X ray-irradiated (20 Gy) and mixed at a 1:20 ratio with autologous CD8+ T cells, obtained by positive selection with CD8 Positive Isolation Kit (Dynal). These cultures were set up in 48-well plates (Corning); each well contained 1.5×10^4 peptide-pulsed DCs, 3×10^5 CD8+ T cells and 10 ng/ml of IL-7 (R&D System) in 0.5 ml of AIM-V/2% AS medium. Three days later, these cultures were supplemented with IL-2 (CHIRON) to a final concentration of 20 IU/ml. On day 7 and 14, the T cells were further stimulated with the autologous peptide-pulsed DCs. The DCs were prepared each time by the same way described above. CTL was tested against peptide-pulsed TISI cells after the 3rd round of peptide stimulation on day 21 (Tanaka H et al., Br J Cancer 2001 Jan 5, 84(1): 94-9; Umano Y et al., Br J Cancer 2001 Apr. 20, 84(8): 1052-7; Uchida N et al., Clin Cancer Res 2004 Dec. 15, 10(24): 8577-86; Suda T et al., Cancer Sci 2006 May, 97(5): 411-9; Watanabe T et al., Cancer Sci 2005 August, 96(8): 498-506).
(§1) Peptide-pulsed TISI (1×10^4/well) was prepared as stimulator cells. Cultured cells in 48 wells were used as responder cells. IFN-gamma ELISPOT assay and IFN-gamma ELISA were performed under manufacture procedure.

[2] = test system: peptide-pulsed TISI cells; assay: IFN-gamma ELISA of expanded CTL lines; assay type: cell-based, human; conditions: CTL lines stimulated with the peptide; target cells pulsed with peptide vs without peptide pulse
Procedure: CTLs were expanded in culture using the method similar to the one described by Riddell et al. (Walter E A et al., N Engl J Med 1995 October 19, 333(16): 1038-44; Riddell S R et al., Nat Med 1996 February, 2(2): 216-23). A total of 5×10^4 CTLs were suspended in 25 ml of AIM-V/5% AS medium with 2 kinds of human B-lymphoblastoid cell lines, inactivated by Mitomycin C, in the presence of 40 ng/ml of anti-CD3 monoclonal antibody (Pharmingen). One day after initiating the cultures, 120 IU/ml of IL-2 were added to the cultures. The cultures were fed with fresh AIM-V/5% AS medium containing 30 IU/ml of IL-2 on days 5, 8 and 11 (Tanaka H et al., Br J Cancer 2001 Jan 5, 84(1): 94-9; Umano Y et al., Br J Cancer 2001 Apr. 20, 84(8): 1052-7; Uchida N et al., Clin Cancer Res 2004 Dec. 15, 10(24): 8577-86; Suda T et al., Cancer Sci 2006 May, 97(5): 411-9; Watanabe T et al., Cancer Sci 2005 August, 96(8): 498-506).
as §1

[3] = test system: peptide-pulsed TISI cells; assay: IFN-gamma ELISA of CTL clones established by limiting dilution; assay type: cell-based, human; conditions: CTL clones from limiting dilution, target cells pulsed with peptide vs not pulsed
Procedure: The dilutions were made to have 0.3, 1, and 3 CTLs/well in 96 round-bottomed micro titer plate (Nalge Nunc International). CTLs were cultured with 1×10^4 cells/well of 2 kinds of human B-lymphoblastoid cell lines, 30 ng/ml of anti-CD3 antibody, and 125 IU/ml of IL-2 in a total of 150 micro 1/well of AIM-V Medium containing 5% AS. 50 micro 1/well of IL-2 were added to the medium 10 days later so to reach a final concentration of 125 IU/ml IL-2. CTL activity was tested on the 14th day, and CTL clones were expanded using the same method as described above (Uchida N et al., Clin Cancer Res 2004 Dec. 15, 10(24): 8577-86; Suda T et al., Cancer Sci 2006 May, 97(5): 411-9; Watanabe T et al., Cancer Sci 2005 August, 96(8): 498-506).
as §1

[4] = test system: COS7 cells transfected with SEMA5B and HLA-A*2402; assay: Specific CTL activity against target cells expressing SEMA5B and HLA-A*2402; assay type: cell-based, African green monkey; conditions: CTL line established with the peptide
Text: The cDNA encoding an open reading frame of target genes or HLA-A*2402 was amplified by PCR. The PCR-amplified product was cloned into expression vector. The plasmids were transfected into COS7, which is the target genes and HLA-A*2402-null cell line, using lipofectamine 2000 (Invitrogen) according to the manufacturer's recommended procedures. After 2 days from transfection, the transfected cells were harvested with versene (Invitrogen) and used as the stimulator cells (5×10^4 cells/well) for CTL activity assay.
The established CTL line raised against SEMA5B-A24-10-290 (SEQ ID NO: 41) peptide was examined for the ability to recognize target cells that express SEMA5B and HLA-A*2402 molecule. COS7 cells transfected with both the full SEMA5B and HLA-A*2402 gene (a specific model for the target cells that express SEMA5B and HLA-A*2402 gene) were prepared as a stimulator cells, and COS7 cells transfected with either full length of SEMA5B or HLA-A*2402 were used as the controls.

With CFLGSGLLTL [SEQ ID NO: 47, CFLGSGLLTL] the “Peptide specific CTL activity (IFN-gamma production), IFN-gamma ELISPOT” value (“Peptide specific CTL activity” for short) ([1]; listed as SEMA5B-A24-10-1044) was “potent IFN-gamma production; also recorded: significant and specific CTL activity” and the CTL inducibility [1] was “particularly high CTL inducibility”.
In the case of RFSHLVVDL [SEQ ID NO: 13, RFSHLVVDL], the “Peptide specific CTL activity” value ([1]; listed as SEMA5B-A24-9-470) is reported as “potent IFN-gamma production; also recorded: significant and specific CTL activity” and the CTL inducibility [1] is reported as “particularly high CTL inducibility”.
With IFWASWGSW [SEQ ID NO: 8, IFWASWGSW] the “Peptide specific CTL activity” value ([1]; listed as SEMA5B-A24-9-723) was “potent IFN-gamma production; also recorded: significant and specific CTL activity” and the CTL inducibility [1] was “particularly high CTL inducibility”.
AYRSQGACL [SEQ ID NO: 20, AYRSQGACL] was tested, and the “Peptide specific CTL activity” value ([1]; listed as SEMA5B-A24-9-558) was “potent IFN-gamma production; also recorded: significant and specific CTL activity” and the CTL inducibility [1] was “particularly high CTL inducibility”.
For LYAATVIDF [SEQ ID NO: 1, LYAATVIDF], the “Peptide specific CTL activity” value [1] was “no specific IFN-gamma production”.
IGLFAYFFL [SEQ ID NO: 10, IGLFAYFFL] was tested, and the “Peptide specific CTL activity” value ([1]; listed as SEMA5B-A24-9-293) was “potent IFN-gamma production; also recorded: significant and specific CTL activity”, the CTL inducibility [1] was “particularly high CTL inducibility” and the “IFN-gamma production of CTL lines, IFN-gamma ELISA” value (“IFN-gamma production of CTL lines” below) [2] was “potent IFN-gamma production”.
PYSEIPVIL [SEQ ID NO: 3, PYSEIPVIL] was tested, and the “IFN-gamma production of CTL clones, IFN-gamma ELISA” value (“IFN-gamma production of CTL clones” for short) ([3]; listed as SEMA5B-A24-9-1010) was “potent IFN-gamma production”, the “Peptide specific CTL activity” value ([1]; listed as SEMA5B-A24-9-1010) was “potent IFN-gamma production; also recorded: significant and specific CTL activity” and the CTL inducibility [1] was “particularly high CTL inducibility”. For the same sequence, the “IFN-gamma production of CTL lines” value [2] was “potent IFN-gamma production”.
With LYIGTESGTI [SEQ ID NO: 54, LYIGTESGTI] the “Peptide specific CTL activity” value ([1]; listed as SEMA5B-A24-10-489) was “potent IFN-gamma production; also recorded: significant and specific CTL activity” and the CTL inducibility [1] was “particularly high CTL inducibility”.
For AYDIGLFAYF [SEQ ID NO: 41, AYDIGLFAYF], the “IFN-gamma production of CTL clones” value ([3]; listed as SEMA5B-A24-10-290) was “potent IFN-gamma production”, the “Peptide specific CTL activity” value ([1]; listed as SEMA5B-A24-10-290) was “potent IFN-gamma production; also recorded: significant and specific CTL activity” and the CTL inducibility [1] was “particularly high CTL inducibility”. The “IFN-gamma production of CTL lines” value [2] was “potent IFN-gamma production”, the “Specific CTL activity against control COS7 cells expressing either HLA-A*2402 or SEMA5B” value ([4]; controls) was “no significant specific CTL activity” and the “Specific CTL activity against COS7 cells transfected with both SEMA5B and HLA-A*2402” value ([4]; listed as SEMA5B-A24-10-290) was “potent CTL activity; also recorded: specific CTL activity”.
With VFMCGTNAF [SEQ ID NO: 4, VFMCGTNAF] the “Peptide specific CTL activity” value ([1]; listed as SEMA5B-A24-9-196) was “potent IFN-gamma production; also recorded: significant and specific CTL activity” and the CTL inducibility [1] was “particularly high CTL inducibility”.
For CYLEELHVL [SEQ ID NO: 2, CYLEELHVL], the “IFN-gamma production of CTL clones” value ([3]; listed as SEMA5B-A24-9-512) was “potent IFN-gamma production”, the “Peptide specific CTL activity” value ([1]; listed as SEMA5B-A24-9-512) was “potent IFN-gamma production; also recorded: significant and specific CTL activity” and the CTL inducibility [1] was “particularly high CTL inducibility”. For the same sequence, the “IFN-gamma production of CTL lines” value [2] was “potent IFN-gamma production”.
KWLNEPNFV [SEQ ID NO: 9, KWLNEPNFV] was tested, and the “Peptide specific CTL activity” value ([1]; listed as SEMA5B-A24-9-280) was “potent IFN-gamma production; also recorded: significant and specific CTL activity” and the CTL inducibility [1] was “particularly high CTL inducibility”.
In the case of FYYNELQSAF [SEQ ID NO: 40, FYYNELQSAF], the “Peptide specific CTL activity” value ([1]; listed as SEMA5B-A24-10-354) is reported as “potent IFN-gamma production; also recorded: significant and specific CTL activity” and the CTL inducibility [1] is reported as “particularly high CTL inducibility”.
